Patent US5665724A, “Substituted pyrimidinylaminothiazole derivatives useful as platelet aggregation inhibitors” (Ortho Pharmaceutical Corporation, priority 1995, dated 1997)

Key:
[1] = tested on: fibrinogen binding to activated platelets; test: 125I-Fibrinogen binding to activated platelets; settings: thrombin-activated platelets, 125I-fibrinogen 0.15 μM; for % Inhibition Fibrinogen Binding @ 30 μM: 30 μM compound, 10 minutes, room temperature; for IC50: printed in column % Inhibition Fibrinogen Binding @ 30 μM, read-out: Fibrinogen Binding, IC50 (concentration given in lieu of a percentage)
Method: The compounds of the invention as identified above are evaluated for platelet aggregation inhibition activity as indicated by the percentage of non-aggregated platelets which are available for binding in accordance with the following procedure.
^125 I-Fibrinogen binding to activated platelets is a modification of the procedure described by Bennett et al., 1988. Briefly, 40 mL of PRP (obtained from Biological Specialty Corp., Lansdale, Pa.) are centrifuged at 120×g to remove contaminating red cells. Aspirin (50 μM) is added and the PRP is incubated at 37° C. for 20 minutes. The pH of the PRP is adjusted to 6.5 with 3.8% sodium citrate and 0.9 μM of PGE1 is added. Platelets are concentrated by a 300×g centrifugation (10 minutes) and the pellet is resuspended in 4 mL. of Tyrode's buffer. The platelet suspension (4 mL) is gel-filtered through a Sepharose-2B column (50 mL bed volume). The platelet count is adjusted to 1×10^8 platelets per 200 mL. The binding reaction is performed in polystyrene tubes (final volume […]). Reagents are added in the following order: 80 mL of Tyrode's buffer, 50 mL of CaCl2 (final concentration (f.c.) […]) and 50 mL of thrombin (f.c. 0.1 unit/mL). The platelet suspension is then added and the mixture is allowed to incubate at room temperature for 2 minutes. Hirudin (50 mL, f.c. 0.5 unit/mL) is immediately added to prevent the catalytic activity of thrombin. Various concentrations of the compound to be tested […] with the competing radioligand ^125 I-fibrinogen (f.c. of 0.15 μM) are added. The mixture is incubated for 10 minutes at room temperature. To terminate the binding reaction the platelets are sedimented (10,000×g for 3 minutes) through silicone oil (3:1 hi-phenol 550/methyl silicone 200, W. F. Nye, Inc., New Bedford, Mass.), in an Eppendorf centrifuge.
The tips of the centrifuge tubes containing the pelleted platelets are cut off and counted for ^125 I-fibrinogen associated with the stimulated platelets. The amount of platelet radioactivity measured in the presence of nonlabeled fibrinogen (4 mg/mL) is considered the nonspecific binding. All samples are repeated in triplicate.
Data are expressed as a percent at concentrations of 30 μM of specifically bound ^125 I-fibrinogen to the platelets in Table 6 below. Positive percentages of fibrinogen binding indicates higher activity for inhibiting platelet aggregation since only non-aggregated or free platelets are available for fibrinogen binding. Alternatively, a concentration is provided in lieu of a percentage to indicate the IC50 of concentration of compound which provides 50% fibrinogen binding.

[2] = tested on: platelets (platelet aggregation); test: Platelet aggregation inhibition (gel-filtered platelets, thrombin or ADP agonist, aggregometer); type: cell-based; settings: 37° C.; for inhibition at 50 µM: Platelet, 50 μM compound, three minutes; for IC50: % Inhibition Platelet Aggregation @ 50 μM, read-out: Platelet Aggregation, concentration given in lieu of a percentage (IC50)
Method: The percentage of platelet aggregation is calculated as an increase in light transmission of drug treated platelet concentrate vs control treated platelet concentrate. Blood is obtained from drug free, normal donors and placed into tubes containing 0.13M sodium citrate (two sources are routinely used: platelet concentrate obtained from Biological Specialty Corp., Lansdale, Pa. or whole blood obtained from donors). Platelet rich plasma (PRP) is collected by centrifugation of the concentrate or whole blood at 130×g for 15 minutes at 25° C. The PRP (5 mL) is gel filtered through Sepharose 2B (bed volume 50 mL), and the platelet count is adjusted to 2×10^7 platelets per sample. The following constituents are added to a siliconized cuvette: 250 μL of the concentrated platelet filtrate, 100 μL of Tyrode's buffer (0.14M NaCl, 0.0027M KCl, 0.012M NaHCO3, 0.76 mM Na2 HPO4, 0.0055M glucose and 2 mg/mL BSA pH 7.4), 50 μL of 2 mM calcium and test drug […]. Aggregation is monitored in a dual channel Chrono-log Aggregometer for three minutes following the addition of agonist (thrombin 50 μL of 1 unit/mL, or ADP 50 μL of 100 μM). The final assay volume is 500 μL. The reaction takes place at 37° C. The peak aggregation response is calculated as the increase in light transmission units over a three minute period. The difference of the increase in light transmission between control and drug treated platelets is then expressed as a percent of the nondrug treated controls.

Row | Compound | % Inhibition Fibrinogen Binding @ 30 μM [1] [%] | inhibition at 50 µM [2] [%] | IC50 [2] [µM] | IC50 [1] [µM]
1 | CCN(CC)CCCNC(=O)c1cnc(Nc2nc(-c3ccc(C)cc3)cs2)nc1C(F)(F)F [Cmpd 2] | 12 | 75 | – | –
2 | O=C(NCCCn1ccnc1)c1cnc(Nc2nc(-c3cccc(C(F)(F)F)c3)cs2)nc1C(F)(F)F [Cmpd 3] | 4 | 55 | – | –
3 | NCCCNC(=O)c1cnc(Nc2nc(-c3cccc(C(F)(F)F)c3)cs2)nc1C(F)(F)F [Cmpd 4] | 50 | – | 10 | –
4 | COc1ccc(-c2csc(Nc3ncc(C(=O)NCCCN(C)C)c(C(F)(F)F)n3)n2)cc1 [Cmpd 5] | 47 | 96 | – | –
5 | O=C(NCCCNC1CCCCC1)c1cnc(Nc2nc(-c3cccc(C(F)(F)F)c3)cs2)nc1C(F)(F)F [Cmpd 6] | – | – | 15 | 30
6 | O=C(NCCCN1CCCCCC1)c1cnc(Nc2nc(-c3cccc(C(F)(F)F)c3)cs2)nc1C(F)(F)F [Cmpd 7] | 14 | 95 | – | –
7 | O=C(NCCCNC1CCCC1)c1cnc(Nc2nc(-c3cccc(C(F)(F)F)c3)cs2)nc1C(F)(F)F [Cmpd 8] | 50 | 85 | – | –
8 | CCCCNCCCNC(=O)c1cnc(Nc2nc(-c3cccc(C(F)(F)F)c3)cs2)nc1C(F)(F)F [Cmpd 9] | – | 96 | – | 3.4
9 | O=C(NCCCNC1CCCCC1)c1cnc(Nc2nc(-c3cccc(C(F)(F)F)c3)cs2)nc1-c1ccccc1 [Cmpd 10] | 15 | 25 | – | –
10 | O=C(NCCCN1CCCC1=O)c1cnc(Nc2nc(-c3cccc(C(F)(F)F)c3)cs2)nc1C(F)(F)F [Cmpd 11] | 10 | 25 | – | –
11 | CN1CCN(CCCNC(=O)c2cnc(Nc3nc(-c4cccc(C(F)(F)F)c4)cs3)nc2C(F)(F)F)CC1 [Cmpd 12] | 47 | 90 | – | –
12 | O=C(NCCCN1CCCCC1)c1cnc(Nc2nc(-c3cccc(Cl)c3)cs2)nc1C(F)(F)F [Cmpd 13] | 16 | 94 | – | –
13 | O=C(NCCCN1CCCCCC1)c1cnc(Nc2nc(-c3cccc(Cl)c3)cs2)nc1C(F)(F)F [Cmpd 14] | 15 | 98 | – | –
14 | O=C(NCCCNC1CCCCC1)c1cnc(Nc2nc(-c3cccc(Cl)c3)cs2)nc1C(F)(F)F [Cmpd 15] | 73 | – | 14.8 | –
15 | CCCNCCCNC(=O)c1cnc(Nc2nc(-c3cccc(Cl)c3)cs2)nc1C(F)(F)F [Cmpd 16] | 20 | 96 | – | –
16 | CCCCNCCCNC(=O)c1cnc(Nc2nc(-c3ccc(C)cc3)cs2)nc1C(F)(F)F [Cmpd 17] | 43 | 36 | – | –
17 | Cc1sc(Nc2ncc(C(=O)NCCCNC3CCCCC3)c(C(F)(F)F)n2)nc1-c1ccccc1 [Cmpd 18] | 47 | 58 | – | –
